Experimental data: patent US6440957B1, “Cephalosporines having cyclic aminoguanidine substituents as antibiotics” (Biochemie Gesellschaft m.b.H., priority 1998, dated 2002)
≈ marks a conversion by molar mass, not a printed value.

Legend:
Test in all cases: Agar Dilution Test (NCCLS), MIC
Assay type in all cases: cell-based
[1] = system: E. coli strain ATCC 10536; conditions: Escherichia coli, ATCC10536
Excerpt: (§1) In particular, the active compounds of the invention show antimicrobial, e.g. antibacterial, activity against e.g. gram negative and gram positive bacteria, e.g. […] bacteria such as Pseudomonas, e.g. Pseudomonas aeruginosa; Escherichia, e.g. Escherichia coli; Enterobacter, e.g. Enterobacter cloacae; Klebsiella, e.g. Klebsiella edwardsii, Klebsiella pneumoniae; Enterococcus, e.g. Enterococcus faecalis; Moraxella, e.g. Moraxell catarrhalis; Streptococcus, e.g. Streptococcus pneumoniae, Streptococcus pyogenes; and Staphylococcus, e.g. Staphylococcus aureus; in vitro in the Agar Dilution Test according to National Commitee for Clinical Laboratory Standards (NCCLS) 1993, Document M7-A3Vol.13, No. 25: “Methods for dilution Antimicrobial Susceptibility Tests for Bacteria that Grow Aerobically—Third Edition, Approved Standard”. […] The active compounds of the invention show an surprising overall activity spectrum.

[2] = system: E. coli strain ATCC 35218; conditions: Escherichia coli, ATCC35218
Excerpt: as §1

[3] = system: Enterobacter cloacae strains
Excerpt: as §1

[4] = system: Klebsiella edwardsii, strain ATCC 10896; conditions: ATCC10896, Example 48 tested in form of the hydrochloride
Excerpt: as §1

MIC [1] | MIC [2] | MIC [3] | Structure (SMILES) | MIC [4]
< 0.0125 µg/mL | < 0.0125 µg/mL | < 0.0125 µg/mL | CCN1CCN(N=CC2=C(C(=O)O)N3C(=O)C(NC(=O)/C(=N\OCF)c4nsc(N)n4)[C@H]3SC2)C1=NC (some centres unmarked) [Example 48, 7-{[(5-amino-1,2,4-thiadiazole-3-yl)-(Z)-(fluoromethoxyimino)-acetyl]amino}-3-{[(3-ethyl-2-methylimino-imidazolidine-1-yl)imino]methyl}-3-cephem-4-carboxylic acid] | ~0.8 µg/mL (≈ 1.44 µM)
 |  |  | CC(C)(O/N=C(\C(=O)N[C@@H]1C(=O)N2C(C(=O)[O-])=C(C[n+]3ccccc3)CS[C@H]12)c1csc(N)n1)C(=O)O [ceftazidime, reference compound] | ~1.6 µg/mL (≈ 2.93 µM)
